“Also recorded” adds a separate entry of the source.
What was measured:
[1] = tested on: T-bet+ Age-related B cells (ABCs); experiment: Depletion of T-bet+ Age-related B cells (ABCs) in aged mice; format: in vivo; conditions: administered at day 0, 4 and 6; sacrificed day 7; flow cytometry
Protocol: FIG. 8A-8C. T-bet+ Age-related B cells (ABCs) were depleted in aged mice upon CGS21680 treatment. CD11c and CD19 flow cytometry data from (A) vehicle-treated and (B) A2aR agonist-(CGS21680) treated aged mice. CGS21680 was administered at day 0, 4 and 6. Mice were sacrificed on day 7 and ABCs were identified using flow cytometry. (C) Quantification of the data in (A) and (B).

CD11c^+ CD19^+ B cells [2] = experiment: Depletion of T-bet+ B cells in lupus-prone MRL/lpr mice (flow cytometry of spleen cells); format: in vivo, MRL/lpr (MRL/MpJ-Fas^lpr/J) mice; conditions: 12 to 13 week old MRL/lpr mice, treated every other day for 7 days
Protocol: FIGS. 5A-5B. Agonist treatment eliminated T-bet^+ B cells in lupus-prone MRL/lpr (MRL/MpJ-Fas^lpr/J) mice. CD11c and CD19 flow cytometry data from (A) vehicle-treated mice and (B) A2aR agonist (CGS21680)-treated mice. 12 to 13 week old MRL/lpr mice were treated with vehicle, or CGS21680, every other day for 7 days, at which time spleen cells were analyzed by flow cytometry.

CD11c^+ CD19^+ B cells [3] = experiment: In vitro agonist treatment of T cell-depleted spleen cells from E. muris-infected mice; format: cell-based; conditions: 48 hours
Protocol: FIGS. 6A-6B. In vitro agonist treatment eliminated T-bet^+ B cells. CD11c and CD19 flow cytometry data using B cells isolated from (A) vehicle-treated splenocytoes and (B) A2aR agonist (CGS21680)-treated splenocytes. C57BL/6 mice were infected with E. muris; 30 days post-infection, T cell-depleted spleen cells were incubated in cell culture medium treated with vehicle, or CGS21680 (1 μM), for 48 hours. Approximately 50% of the CD11c^+ CD19^+ B cells were depleted by the agonist.
FIGS. 7A-7B. In vitro Regadenoson treatment eliminated T-bet^+ B cells. (A) vehicle treated splenocytes and (B) agonist (Regadenoson)-treated splenocytes. Mice were infected with E. muris; 44 days post-infection, T cell-depleted spleen cells were incubated in medium with or without Regadenson (10 μM), for 48 hours. Approximately 30% of the CD11c^+ CD19^+ B cells were depleted by Regadenoson in vitro.

[4] = tested on: CD11c^+ CD19^+ B cells (also T-bet^+); experiment: Agonist treatment of E. muris-infected wild-type versus B cell-specific A2aR KO mice (flow cytometry of spleen cells); format: in vivo; conditions: 30 days post-infection, treated every other day for 7 days
Protocol: FIGS. 3A-3B. […] CD11c and CD19 flow cytometry data from (A) Wild type mice (B) mice that lacked A2aR only on B cells. The mice were infected with E. muris; 30 days post-infection wild-type or MB1-cre×A2aR^fl/fl (B cell-specific A2aR KO) mice were treated with CGS21680 every other day for 7 days, at which time spleen cells were analyzed by flow cytometry. CD11c^+ CD19^+ B cells (also T-bet^+) were eliminated in the wild-type mice (A), but not in the B cell-specific A2aR KO mice (B). The data shown are representative of several experiments.

[5] = tested on: CD11c^+ CD19^+ or T-bet^+ CD19^+ B cells; experiment: Depletion of T-bet+ B cells in lupus-prone SLE1.2.3 mice (flow cytometry of spleen cells); format: in vivo, SLE1.2.3 (B6.NZMs^Sle1/Sle2/Sle3) mice; conditions: nine-month old SLE mice, treated every other day for 7 days, n=6
Protocol: FIGS. 4A-4D. Agonist treatment eliminated T-bet+ B cells in lupus-prone SLE1.2.3 (B6.NZMs^Sle1/Sle2/Sle3) mice. (A) CD11c and CD19 flow cytometry data from vehicle treated mice. (B) CD11c and CD19 flow cytometry data from A2aR agonist (CGS21680)-treated mice. (C) T-bet and CD19 flow cytometry data from vehicle-treated mice. (D) T-bet and CD19 flow cytometry data from agonist (CGS21680)-treated mice. Nine-month old SLE mice were treated with vehicle, or CGS21680, every other day for 7 days, at which time spleen cells were analyzed by flow cytometry. CD11c^+ CD19^+ ((A) and (B)) or T-bet^+ CD19^+ ((C) and (D)) B cells were analyzed. […] The data shown are representative of an experiment where n=6.

[6] = tested on: anti-nuclear antibodies (ANAs); experiment: Anti-nuclear antibodies in lupus-prone MRL/lpr mice; format: in vivo; conditions: once weekly from 9 weeks of age, sacrificed at 15 weeks of age
Source text: FIG. 9. […] CGS21680-treated mice had much lower amounts of anti-nuclear antibodies (ANAs). ANAs are a signature of disease in lupus mice.

CD11c^+ T-bet^+ B cells = experiment: Depletion of splenic CD11c+ T-bet+ B cells in E. muris-infected mice (flow cytometry); format: in vivo, C57BL/6 mice

Structure (SMILES) | T-bet+ Age-related B cells (ABCs) in aged mice [1] | CD11c^+ CD19^+ B cells in spleen (CD11c^+ CD19^+ B cells [2]) | CD11c^+ CD19^+ B cells depleted in vitro (CD11c^+ CD19^+ B cells [3]; 1 μM, 30 days post-infection) | CD11c^+ CD19^+ B cells (also T-bet^+) in spleen, B cell-specific A2aR KO mice ([4]; MB1-cre×A2aR^fl/fl mice) | CD11c^+ CD19^+ B cells (also T-bet^+) in spleen, wild-type mice ([4]; wild-type mice) | CD11c^+ CD19^+ or T-bet^+ CD19^+ B cells in spleen [5] | amounts of anti-nuclear antibodies (ANAs) [6] | CD11c^+ T-bet^+ B cells in spleen after cessation of treatment (CD11c^+ T-bet^+ B cells; 2.5 mg/kg daily for 7 days from day 30, spleen harvested 12 days following cessation (day 48), p<0.0001 vs vehicle) | CD11c^+ T-bet^+ B cells in spleen after agonist treatment (CD11c^+ T-bet^+ B cells; E. muris infection day 0, 2.5 mg/kg daily for 7 days from day 30, spleen harvested day 37, p<0.0001 vs vehicle, 2.5 mg/kg) | CD11c^+ CD19^+ B cells depleted in vitro (CD11c^+ CD19^+ B cells [3]; 10 μM, 44 days post-infection) | number of Tbet^+ B cells in splenocytes (CD11c^+ T-bet^+ B cells; 2.5 mg/kg every other day for 7 days from day 30 post-infection, analysed day 37, P=0.0049 vs vehicle)
CCNC(=O)[C@H]1O[C@@H](n2cnc3c(N)nc(NCCc4ccc(CCC(=O)O)cc4)nc32)[C@H](O)[C@@H]1O [CGS21680] | depleted | Most of the CD11c^+ CD19^+ B cells were eliminated | Approximately 50% | did not eliminate | eliminated | largely eliminated | much lower | prolonged depletion; also recorded: Significant cell depletion | largely absent; also recorded: major reduction | – | –
CNC(=O)c1cnn(-c2nc(N)c3ncn([C@@H]4O[C@H](CO)[C@@H](O)[C@H]4O)c3n2)c1 [Regadenoson] | – | – | – | – | – | – | – | – | – | Approximately 30% | reduced
